Consider two compounds from ChEMBL document CHEMBL4196109, “Chemical Strategies for Half-Life Extension of Biopharmaceuticals: Lipidation and Its Alternatives” (ACS Med Chem Lett, 2018).

One data set has as its system Homo sapiens. Put plainly: Half life in sc dosed human. In kind it is ADME, organism-based. The following applies: in vivo.
The target in another data set is Albumin (Homo sapiens, UniProt P02768). The data set can be described thus: Binding affinity to human albumin. The conditions noted are these: isolated protein. In kind it is ADME.
Sequence of Albumin (P02768 whole entry): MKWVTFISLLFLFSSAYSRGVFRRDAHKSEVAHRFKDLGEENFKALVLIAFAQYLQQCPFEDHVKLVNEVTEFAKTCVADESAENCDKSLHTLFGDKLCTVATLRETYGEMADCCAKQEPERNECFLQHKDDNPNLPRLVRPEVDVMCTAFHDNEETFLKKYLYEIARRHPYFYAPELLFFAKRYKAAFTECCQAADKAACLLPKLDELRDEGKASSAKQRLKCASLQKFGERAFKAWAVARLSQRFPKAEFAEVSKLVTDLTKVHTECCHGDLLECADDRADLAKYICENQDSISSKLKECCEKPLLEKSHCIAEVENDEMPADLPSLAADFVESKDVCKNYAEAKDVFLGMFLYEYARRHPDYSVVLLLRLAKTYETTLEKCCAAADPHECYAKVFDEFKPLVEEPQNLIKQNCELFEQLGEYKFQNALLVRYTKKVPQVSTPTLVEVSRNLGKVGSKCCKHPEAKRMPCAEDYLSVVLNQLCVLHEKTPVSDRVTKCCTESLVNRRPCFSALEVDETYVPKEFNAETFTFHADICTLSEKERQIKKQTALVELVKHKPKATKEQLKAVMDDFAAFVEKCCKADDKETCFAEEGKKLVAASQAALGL

Compound SEMAGLUTIDE returned a t1/2 in the data set with Homo sapiens of 1 weeks. As for `NC(=O)[C@H](CCCCNC(=O)CSC[C@H](N)C(=O)O)NC(=O)COCCOCCNC(=O)CC[C@H](NC(=O)CC[C@H](NC(=O)COCCOCCNC(=O)CCCS(=O)(=O)NC(=O)CCCCCCCCCCCCCCc1nn[nH]n1)C(=O)O)C(=O)O`, at Albumin, the Activity was above 99%.
